Test results as given in ChEMBL document CHEMBL1123970, “Ab initio molecular electrostatic potentials of perillartine analogues: implications for sweet-taste receptor recognition” (J Med Chem, 1988).

Experiment: Compound was tasted for its sweet potency, expressed with relative to sucrose
`CC1=CCC(/C=N/O)=CC1` showed a Sweetness potency of 500. Molecule `O/N=C/C1=CCCCC1` has a Sweetness potency of 55. In the case of `C/C=C(C)/C(C)=N/O`, the Sweetness potency is reported as 140. For `O/N=C/C1=CCCC1`, the Sweetness potency was 55. Work on `COCC1=CCC(/C=N/O)=CC1` yielded a Sweetness potency of 225. Work on `O/N=C/C1=CC=CCC1` yielded a Sweetness potency of 90. In the case of `C/C=C(C)/C=N/O`, the Sweetness potency is reported as 40. `O/N=C/C1=CCC=CC1` gave a Sweetness potency of 200.
